Values of other authors as cited in patent US20240165069A1, “METHODS FOR TREATING DYSGEUSIA AND OTHER LINGERING SYMPTOMS ASSOCIATED WITH SEVERE ACUTE RESPIRATORY SYNDROME CORONAVIRUS 2 INFECTIONADN CORONAVIRUS DISEASE 2019” (Nocendra, Inc., priority 2021, published 2024).

Tested on: oral inflammation
Details: Phase 1 trial

CCCCC[C@@H](O)/C=C/c1ccccc1/C=C/[C@@H](O)[C@@H](O)CCCC(=O)O [BLXA4, 9,12-benzo-lipoxin A4]
safety profile (50 subjects receiving drug, oral topical mouth rinse, versus placebo mouth rinse): indistinguishable from placebo mouth rinse in safety profile
efficacy (reversal of inflammation) (oral topical mouth rinse, not powered for efficacy, trends only): trends in the efficacy data suggested reversal of inflammation
pro-resolving lipid mediator shift in serum (topical BLXA4, serum of the subjects): elicited a pro-resolving lipid mediator shift in the serum
